According to patent US20220030868A1, “FUNGICIDAL HALOMETHYL KETONES AND HYDRATES” (FMC CORPORATION, priority 2018, published 2022):
Marks after values point to notes of the source that are not given here.

Columns and labels:
[1] = tested on: Phakopsora pachyrhizi; assay: Test A: test suspension sprayed on soybean seedlings one day before inoculation with Phakopsora pachyrhizi spores (Asian soybean rust), visual disease rating; assay type: in vivo; conditions: 100 = 100% disease control, 0 = no control; for pest or weed control at 10 ppm / pest or weed control at 50 ppm: Phakopsora pachyrhizi; for pest or weed control at 50 ppm: 50 ppm test suspension
How it was run: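 Soybean seedlings were sprayed to run-off with test suspension (acetone 3% of volume, acetone/water 50/50, 250 ppm PEG400) and inoculated with rust spores one day later. Incubation: 24 h saturated atmosphere at 22° C, then 8 days growth chamber at 22° C; scores 0–100 relative to untreated controls.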

[2] = tested on: Puccinia recondita f. sp. tritici; assay: Test B: test suspension sprayed on wheat seedlings one day before inoculation with Puccinia recondita f. sp. tritici spores (wheat leaf rust), disease rating; assay type: in vivo; conditions: 100 = 100% disease control, 0 = no control; for pest or weed control at 50 ppm: 50 ppm test suspension
How it was run: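 Wheat seedlings were sprayed to run-off with compound suspended in 50/50 acetone/water containing 250 ppm PEG400, then inoculated with P. recondita f. sp. tritici spores the next day. Plants were held 24 h in saturated air at 20 °C, then 6 days in a growth chamber at 20 °C. Disease control was rated 0–100% relative to controls, with some entries run at 50 or 10 ppm.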

[3] = tested on: Uncinula necator; assay: Test C: test suspension sprayed on grape seedlings one day before inoculation with Uncinula necator spores (grape powdery mildew), disease rating; assay type: in vivo; conditions: 50 ppm test suspension, 100 = 100% disease control; for pest or weed control at 50 ppm: Erysiphe necator
Description: General protocol for preparing test suspensions for Tests A-C: the test compounds were first dissolved in acetone in an amount equal to 3% of the final volume and then suspended at the desired concentration (in ppm) in acetone and purified water (50/50 mix by volume) containing 250 ppm of the surfactant PEG400 (polyhydric alcohol esters). The resulting test suspensions were then used in Tests A-C. The test solution was sprayed to the point of run-off on grape seedlings. The following day the seedlings were inoculated with a spore suspension of Uncinula necator (the causal agent of grape powdery mildew) and incubated in a growth chamber at 20° C. for 12 days, after which time disease ratings were made. Results for Tests A-C are given in Table A. In the Table, a rating of 100 indicates 100% disease control and a rating of 0 indicates no disease control (relative to the controls). An asterisk “*” or a double asterisk “**” next to the rating value indicates a 50 ppm or 10 ppm test suspension was used, respectively. A dash (-) indicates the compound was not tested.

SMILES | pest or weed control at 10 ppm ([1]; 10 ppm test suspension) | pest or weed control at 10 ppm ([2]; 10 ppm test suspension) | pest or weed control at 50 ppm [3] | Test C rating (disease control) [3] | Test A rating (disease control) ([1]; 10 ppm test suspension) | Test B rating (disease control) ([2]; 10 ppm test suspension) | other results
O=C(NCC1CC1)c1csc(Cc2ccc(OCC3(C(F)(F)F)OCCO3)cc2)n1 [Compound 71, N-(cyclopropylmethyl)-2-[[4-[[2-(trifluoromethyl)-1,3-dioxolan-2-yl]methoxy]phenyl]-methyl]thiazole-4-carboxamide] | 100% | 96% | – | – | – | – | melting point: 88 to 92 °C
N#CCCCOC(=O)c1cnn(Cc2ccc(OCC3(C(F)(F)F)OCCO3)cc2)c1 [Compound 171, 3-cyanopropyl 1-[[4-[[2-(trifluoromethyl)-1,3-dioxolan-2-yl]methoxy]phenyl]methyl]-1H-pyrazole-4-carboxylate] | 100% | 0% | 99% | – | – | – | –
CCO/C(=C\Oc1ccc(Cn2cc(C(=O)OCc3ccccc3)cn2)cc1)C(F)(F)F [Compound 186, phenylmethyl 1-[[4-[[(1Z)-2-ethoxy-3,3,3-trifluoro-1-propen-1-yl]oxy]phenyl]methyl]-1H-pyrazole-4-carboxylate] | 100% | 0% | 100% | – | – | – | melting point: 63 to 67 °C
CCCCOC(=O)c1cnn(Cc2ccc(O/C=C(\OCC)C(F)(F)F)cc2)c1 [Compound 218, butyl 1-[[4-[[(1Z)-2-ethoxy-3,3,3-trifluoro-1-propen-1-yl]oxy]phenyl]methyl]-1H-pyrazole-4-carboxylate] | 100% | 0% | 100% | – | – | – | –
CCO/C(=C\Oc1ccc(Cn2cc(C(=O)OCCCCl)cn2)cc1)C(F)(F)F [Compound 221, 3-chloropropyl 1-[[4-[[(1Z)-2-ethoxy-3,3,3-trifluoro-1-propen-1-yl]oxy]phenyl]methyl]-1H-pyrazole-4-carboxylate] | 100% | 0% | 100% | – | – | – | –
CCOC(=O)c1cnn(Cc2ccc(O/C=C(\OCC)C(F)(F)F)c(F)c2)c1 [Compound 262, ethyl 1-[[4-[[(1Z)-2-ethoxy-3,3,3-trifluoro-1-propen-1-yl]oxy]-3-fluorophenyl]methyl]-1H-pyrazole-4-carboxylate] | 100% | 0% | 99% | – | – | – | –
CCOC(=O)c1cnn(Cc2cccc(O/C=C(\OCC)C(F)(F)F)c2)c1 [Compound 265, ethyl 1-[[3-[[(1Z)-2-ethoxy-3,3,3-trifluoro-1-propen-1-yl]oxy]phenyl]methyl]-1H-pyrazole-4-carboxylate] | – | – | 100% | – | – | – | pest or weed control at 50 ppm [1]: 100%; pest or weed control at 50 ppm [2]: 0%
CCOC(=O)c1cnn(Cc2ccc(O/C=C(\OC(C)C)C(F)(F)F)cc2)c1 [compound 57] | – | – | – | 100* % | – | – | Test A rating (disease control) ([1]; 250 ppm test suspension): 100%; Test B rating (disease control) ([2]; 250 ppm test suspension): 0%
CCOC(=O)c1cnn(Cc2ccc(OCC3(C(F)(F)F)OCCO3)cn2)c1 [compound 124] | – | – | 100% | – | – | – | pest or weed control at 50 ppm [1]: 100%; pest or weed control at 50 ppm [2]: 0%
CCO/C(=C\Oc1ccc(Cn2cc(C(=O)OC)cn2)cc1)C(F)(F)F [compound 138] | – | – | – | 100* % | 100% | 0% | –
O=C(COC(=O)c1cnn(Cc2ccc(OCC3(C(F)(F)F)OCCO3)cc2)c1)c1ccccc1 [compound 170] | – | – | – | 100* % | 100% | 0% | –
C#CCOC(=O)c1cnn(Cc2ccc(O/C=C(\OCC)C(F)(F)F)cc2)c1 [compound 185] | – | – | – | 100* % | 100% | 0% | –
CCO/C(=C\Oc1ccc(Cn2cc(C(=O)OCC(C)=O)cn2)cc1)C(F)(F)F [compound 216] | – | – | – | 100* % | 100% | 0% | –
CCCOC(=O)c1cnn(Cc2ccc(O/C=C(\OCC)C(F)(F)F)cc2)c1 [compound 217] | – | – | – | 100* % | 100% | 0% | –
CCO/C(=C\Oc1ccc(Cn2cc(C(=O)OCC(C)C)cn2)cc1)C(F)(F)F [compound 219] | – | – | – | 100* % | 100% | 0% | –
CCO/C(=C\Oc1ccc(Cn2cc(C(=O)OCC3CC3)cn2)cc1)C(F)(F)F [compound 220] | – | – | – | 100* % | 100% | 0% | –
CCO/C(=C\Oc1ccc(Cn2cc(C(=O)OCCC#N)cn2)cc1)C(F)(F)F [compound 245] | – | – | – | 98* % | 100% | 0% | –
CCO/C(=C\Oc1ccc(Cc2ncc(C(=O)NCC(F)F)s2)cc1)C(F)(F)F [compound 276] | – | – | – | 100* % | 13% | 0% | –
